From US20090104177A1, “PEPTIDES FOR INHIBITING THE INTERACTION OF PROTEIN KINASE A AND PROTEIN KINASE A ANCHOR PROTEINS” (FORSCHUNGSVERBUND BERLIN E.V., priority 2004, published 2009)
“Also recorded” adds a separate entry of the source. No end group written: not given here.

How the values were obtained:
[1] = biological target: T1, regulatory RIIα subunits of PKA (Homo sapiens, UniProt P13861); test: RII overlay of membrane-bound (SPOT) peptides, radiolabelled RIIα as probe, densitometry; assay type: binding; settings: human RIIα as probe; in words
T1 construct: Prof; Dr. Friedrich W. Herberg, University of Kassel, Germany (obtained from an academic laboratory, not a vendor)
T1 sequence (P13861 whole entry): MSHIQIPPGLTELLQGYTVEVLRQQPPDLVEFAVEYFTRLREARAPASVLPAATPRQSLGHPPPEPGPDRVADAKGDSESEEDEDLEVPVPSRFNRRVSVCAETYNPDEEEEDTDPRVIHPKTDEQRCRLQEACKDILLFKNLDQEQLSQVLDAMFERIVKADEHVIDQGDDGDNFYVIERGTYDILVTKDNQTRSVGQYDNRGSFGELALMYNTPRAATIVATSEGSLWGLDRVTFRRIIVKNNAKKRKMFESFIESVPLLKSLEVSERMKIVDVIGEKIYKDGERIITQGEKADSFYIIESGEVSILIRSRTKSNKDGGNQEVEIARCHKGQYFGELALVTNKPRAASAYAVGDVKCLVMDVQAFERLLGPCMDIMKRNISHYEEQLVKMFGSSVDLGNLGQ
Excerpt: (§1) Peptide libraries were synthesized by means of automatic SPOT synthesis on Whatman 50 cellulose membranes according to standard protocols using Fmoc chemistry and AutoSpot Robot ATE 222 (Intavis Bioanalytical Instruments AG, Cologne). The protective groups of the amino acid side chains were removed using a mixture of trifluoroacetic acid (TFA) in dichloromethane (DCM) (Frank, 1992; Kramer and Schneider-Mergener, 1998). For control, spots (about 50 nmol of peptide per spot) were cut from the cellulose membrane, removed from the membrane by treatment with 0.05 M NaOH, and analyzed using HPLC and MALDI-TOF mass spectrometry.
(§2) • 1. Regulatory RIIα (human) and RIIβ (rat) subunits of PKA, obtained from Prof. Dr. Friedrich W. Herberg, University of Kassel, Germany. • 2. Catalytic subunits of PKA, Promega, Mannheim, Germany, Order No. V5161 • 3. [γ-^32P]ATP, 5000 Ci/mmol, Amersham Biosciences, Brunswick, Germany, Order No. AA0018 • 4. Sephadex G 50, medium Pharmacia, Order No. 17-0043-01 • 5. Phosphate-buffered saline (PBS)
(§3) The ATP concentration was adjusted to 10 μM by addition of non-radioactive ATP (addition of 5 μl of a 1 mM solution). The batch was incubated on ice for another 50 min.
(§4) The reaction was quenched by adding dextran blue and removing free nucleotides. The free ATP was removed on a Sephadex G50 column.
(§5) Non-incorporated nucleotides were separated from the RII subunits by fractionation on Sephadex G 50 columns. • 1. Swelling of the Sephadex G 50 material: 20 g thereof was allowed to swell in 400 ml of PBS at room temperature overnight. Non-settled material was subsequently removed with a Pasteur pipette. The swollen material was aliquoted in 50 ml Falcon tubes and stored at 4° C. For preservation, sodium azide was added to make a final concentration of 0.01%. • 2. The material was poured into a 10 ml sterile disposable pipette sealed with a glass sphere. To settle the column bed, 50 ml of PBS containing 1 mg/ml BSA (bovine serum albumin) was allowed to pass.
(§6) Until used, the column was sealed with parafilm at the top thereof. • 3. The labelled RII subunits (500 μl), together with dextran blue (70 μl of a 20 mg/ml solution), were applied on the column (overall volume=570 μl). • 4. The sample was allowed to migrate into the matrix, followed by filling up with PBS. • 5. A short time before the dextran blue was eluted, collection of fractions was begun (2 fractions of 1.5 ml each, the other fractions 1 ml each). • 6. To determine the incorporation of ^32P, 1% (5.7 μl) of sample upstream of the column (corresponding to 1% of the radioactivity employed) and 3 μl of each fraction were used. • 7. The fractions of the first peak including the probe were combined. The incorporation rate in % was calculated and the specific activity (cpm/μg of protein) was determined.
(§7) • 1. The proteins (40 μg) were separated by means of SDS-PAGE and transferred on a PVDF membrane (PVDF: polyvinylidene fluoride) using a semi-dry electroblotting procedure. The membrane-associated proteins were stained with Ponceau S in order to identify the marker proteins on the membrane. Destaining was effected using TBS. • 2. The membrane was incubated in Blotto/BSA at 4° C. for 16 hours:
(§8) • 3. Blotto/BSA was replaced with fresh one and ^32P-labelled RII subunits were added (10^5 cpm/ml). This was incubated for 4-6 h at room temperature. • 4. The membrane was washed for 4×15 min in Blotto/BSA and for 2×10 min in 10 mM potassium phosphate buffer, pH 7.4, 0.15 M NaCl. • 5. RII-binding proteins were detected by exposition on a phosphoimager plate.
(§9) Identification of AKAP18δ-derived peptides inhibiting the interaction of AKAP proteins with the regulatory RIIα and RIIβ subunits of PKA. A: Peptides derived from the PKA binding domain of AKAP18δ were synthesized on two membranes. The membranes were incubated with radiolabelled regulatory RIIα (upper row) or RIIβ subunits (row below) of the PKA (RII overlay experiment). […]

[2] = biological target: T2, regulatory RIIβ subunits of PKA (Rattus norvegicus, UniProt P12369); test: RII overlay of membrane-bound (SPOT) peptides, radiolabelled RIIβ as probe, densitometry; assay type: binding; settings: in words
T2 construct: Prof; Dr. Friedrich W. Herberg, University of Kassel, Germany (obtained from an academic laboratory, not a vendor)
T2 sequence (P12369 whole entry): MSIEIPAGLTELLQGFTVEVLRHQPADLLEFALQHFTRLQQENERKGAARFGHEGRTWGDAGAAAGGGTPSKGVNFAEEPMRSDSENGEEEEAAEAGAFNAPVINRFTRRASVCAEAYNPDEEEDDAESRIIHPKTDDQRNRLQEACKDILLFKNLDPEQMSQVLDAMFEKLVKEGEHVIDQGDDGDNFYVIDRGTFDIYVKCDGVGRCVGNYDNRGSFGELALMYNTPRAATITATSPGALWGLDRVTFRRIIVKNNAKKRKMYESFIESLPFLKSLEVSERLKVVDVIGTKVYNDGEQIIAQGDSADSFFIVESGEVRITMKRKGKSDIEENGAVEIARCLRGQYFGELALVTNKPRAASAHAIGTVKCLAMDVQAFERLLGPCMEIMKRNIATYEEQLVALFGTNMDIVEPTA
Excerpt: as §1, §2, §3, §4, §5, §6, §7, §8, §9

RIIα subunits of the PKA = RIIα subunits of the PKA (Homo sapiens, UniProt P13861); test: Summary statement on RIIα binding of AKAP18δ-derived peptides; settings: in words
Sequence of RIIα subunits of the PKA (P13861 whole entry): as the sequence (P13861 whole entry) above
Excerpt: We explain this by binding via hydrogen bridges (H bridges) between peptide and RII dimer (see Fig., hydrogen bridges represented by broken lines). Correspondingly, a common feature of the peptides is the minimum number (8) of amino acids forming H bridges.

human RIIα subunits = human RIIα subunits (Homo sapiens, UniProt P13861); test: Surface plasmon resonance measurement of peptide binding to RIIα
Sequence of human RIIα subunits (P13861 whole entry): as above

RIIβ subunits from rats = RIIβ subunits from rats (Rattus norvegicus, UniProt P12369); test: Surface plasmon resonance measurement of peptide binding to RIIβ
Sequence of RIIβ subunits from rats (P12369 whole entry): as the sequence (P12369 whole entry) above

[3] = biological target: murine RIIα subunit of PKA (Mus musculus, UniProt P12367); settings: Alto et al. (2003); cited from earlier work
Sequence of murine RIIα subunit of PKA (P12367 whole entry): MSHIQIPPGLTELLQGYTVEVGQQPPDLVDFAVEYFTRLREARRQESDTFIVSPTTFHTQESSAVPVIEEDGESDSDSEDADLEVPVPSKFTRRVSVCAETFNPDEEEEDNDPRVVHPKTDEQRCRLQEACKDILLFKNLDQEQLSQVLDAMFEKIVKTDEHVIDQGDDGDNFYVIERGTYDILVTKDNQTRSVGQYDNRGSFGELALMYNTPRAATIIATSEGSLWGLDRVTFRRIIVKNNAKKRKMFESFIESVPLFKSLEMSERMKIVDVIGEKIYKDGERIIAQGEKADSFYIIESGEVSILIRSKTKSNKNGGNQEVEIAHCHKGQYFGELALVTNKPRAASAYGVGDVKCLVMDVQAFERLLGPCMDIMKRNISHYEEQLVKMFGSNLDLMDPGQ

[4] = biological target: T3, regulatory RIIα subunit of PKA (human) (human, UniProt P13861 1-404, 32P-labelled with the catalytic subunit of PKA when used as probe in the RII overlay experiments); test: RII overlay on SPOT membrane, densitometry; reference AKAP18δ-wt
T3 construct: Radiolabelled probe in RII overlays; format in the surface plasmon resonance measurements is not described; also called human RIIα
T3 sequence (P13861 whole entry): as the sequence (P13861 whole entry) above

[5] = biological target: T4, regulatory RIIβ subunit of PKA (rat) (rat, UniProt P12369 1-416, 32P-labelled with the catalytic subunit of PKA when used as probe in the RII overlay experiments); test: as above
T4 construct: Radiolabelled probe in RII overlays; format in the surface plasmon resonance measurements is not described; also called RIIβ subunit of PKA from rats
T4 sequence (P12369 whole entry): as the sequence (P12369 whole entry) above

[6] = biological target: T3, regulatory RIIα subunit of PKA (human); test: RII overlay on SPOT membrane, densitometry; references AKAP18δ-L304T and AKAP18δ-L314E
[7] = biological target: T4, regulatory RIIβ subunit of PKA (rat); test: as above
[8] = biological target: T3, regulatory RIIα subunit of PKA (human); test: RII overlay: SPOT peptides on membrane, probe 32P-labelled RIIα, phosphoimager
[9] = biological target: T4, regulatory RIIβ subunit of PKA (rat); test: RII overlay: SPOT peptides on membrane, probe 32P-labelled RIIβ, phosphoimager
[10] = biological target: T3, regulatory RIIα subunit of PKA (human); test: RII overlay on SPOT membrane with radiolabelled RIIα
[11] = biological target: T4, regulatory RIIβ subunit of PKA (rat); test: RII overlay on SPOT membrane with radiolabelled RIIβ
[12] = biological target: T3, regulatory RIIα subunit of PKA (human); test: surface plasmon resonance
[13] = biological target: T4, regulatory RIIβ subunit of PKA (rat); test: surface plasmon resonance

For CC(C)C[C@H](NC(=O)[C@H](CCCNC(=N)N)NC(=O)[C@@H](NC(=O)[C@H](CC(C)C)NC(=O)[C@H](CCC(=O)O)NC(=O)[C@H](C)NC(=O)[C@H](CC(=O)O)NC(=O)[C@H](CCC(=O)O)NC(=O)[C@@H]1CCCN1)C(C)C)C(=O)N[C@@H](CO)C(=O)N[C@@H](CCCCN)C(=O)N[C@@H](CCCNC(=N)N)C(=O)N[C@@H](CC(C)C)C(=O)N[C@H](C(=O)N[C@@H](CCC(=O)O)C(=O)N[C@@H](CC(N)=O)C(=O)N[C@@H](C)C(=O)N[C@H](C(=O)N[C@@H](CCC(=O)O)C(=O)N[C@@H](CCCCN)C(=O)N[C@@H](C)C(=O)N[C@H](C(=O)N[C@@H](CCC(N)=O)C(=O)N[C@@H](CCC(N)=O)C(=O)N[C@@H](Cc1ccc(O)cc1)C(=O)O)C(C)C)C(C)C)C(C)C [AKAP18δ-L314E], the “binding to RIIα subunits in RII overlay” value [1] was “stronger binding; also recorded: bind strongly”, the “binding to RIIβ subunits in RII overlay” value [2] was “stronger binding; also recorded: bind strongly” and the “RIIα binding compared with peptides derived from natural AKAPs” value (RIIα subunits of the PKA) was “bind stronger than any other peptide derived from natural AKAPs”.

With “AKAPIS [peptide developed by Alto et al. (2003); IS, in silico, reference compound]” the “RIIα binding KD” value (human RIIα subunits) was “no binding”, the “RIIβ binding KD” value (RIIβ subunits from rats) was “no binding” and the “binding to RIIα subunits in RII overlay” value [1] was “barely bind”. For the same molecule, the “binding to RIIβ subunits in RII overlay” value [2] was “barely bind”, the Kd [3] was 0.45 nM and the “affinity increased compared to the Ht31 peptide” value [3] was 5 times.

In the case of “EPEDAELVRLSKRLVENAVLKAVQQYLEETQ (listed as Homo sapiens) [AKAP18δ-RI]”, the “binding to RIIα subunits in RII overlay” value [1] is reported as “weaker”, the “binding to RIIβ subunits in RII overlay” value [2] is reported as “weaker” and the “RIIα binding compared with peptides derived from natural AKAPs” value (RIIα subunits of the PKA) is reported as “bind stronger than any other peptide derived from natural AKAPs”.

Work on Ht31 (peptide) yielded a fold weaker binding than AKAP18δ-wt [4] of 5 fold, a fold weaker binding than AKAP18δ-wt [5] of 5 fold and a fold weaker binding than AKAP18δ-L304T and AKAP18δ-L314E [6] of 5 to 6 fold. For the same molecule, the fold weaker binding than AKAP18δ-L304T and AKAP18δ-L314E [7] was 5 to 6 fold.

For “KGADLIEEAASRIVDAVIEQVKAAG [Ht31, reference compound]”, the Kd (human RIIα subunits) is given as 15 nM, the Kd (RIIβ subunits from rats) is given as 35 nM and the Kd [3] is given as 2.2 nM.

For “PEDAELVRTSKRLVENAVLKAVQQY [AKAP18δ-L304T]”, the Kd (human RIIα subunits) was 0.3 to 0.9 nM, the Kd (RIIβ subunits from rats) was 35 nM and the “binding to RIIα subunits in RII overlay” value [1] was “stronger binding; also recorded: bind strongly”. For the same molecule, the “binding to RIIβ subunits in RII overlay” value [2] was “stronger binding; also recorded: bind strongly” and the “RIIα binding compared with peptides derived from natural AKAPs” value (RIIα subunits of the PKA) was “bind stronger than any other peptide derived from natural AKAPs”.

EPEDAELVRLSKRLVENAVLKAVQQYLEETQ (also called Akap18delta-RI; No. AA) [AKAP18δ-RI]: binds [8]; binds [9].

B1: A18δRIIαRn3 (10/12) (peptide)
peptide: ANDARLVRLPKRLVENAVLKAVQQY
notes: Member of the substitution library of peptide 7 (row 10, peptide 12); also called peptide 10/12; No. FF
B1: binds [10]; no binding [11].

B2: A18δRIIβRn1 (21/4) (peptide)
peptide: ANDARLVRLSKRLVENAVLKFVQQY
notes: Member of the substitution library of peptide 7 (row 21, peptide 4); also called peptide 21/4; A18δRIIβRnl
B2: no binding [10]; binds [11].

B3: AKAP18δ-P (peptide)
peptide: PEDAELVRLSKRLPENAVLKAVQQY
notes: Proline-substituted negative control; also called AKAP18delta-P; No. X
B3: no binding [12]; no binding [13].

B4: AKAP18δ-PP (peptide)
peptide: PEDAELVRLSKRLPENAPLKAVQQY
notes: Double proline-substituted negative control; also called AKAP18delta-PP
B4: no binding [12]; no binding [13].
